Test results taken from US6761922B2, “Sweetener compositions containing aspartyl dipeptide ester compounds” (Ajinomoto Co., Inc., priority 1999, dated 2004).
Read-outs that look alike come from different tables or passages of the source. Where a SMILES comes first, the peptide text is derived from it.

Experiments:
[1] = Measurement of the magnification of sweetness intensity in cola beverage (sensory evaluation against cola with sucrose); type: in vivo; conditions: control cola beverage containing 10% sucrose
Text: (§1) The sweetness intensity of the solution of derivative 2 was 8.75% according to the following equation: (10.0−8.33)×0.25+8.33=8.75. Therefore, the magnification of sweetness of derivative 2 was 5600 (=8.75/0.00155) times that of sucrose. According to the same experiment, the magnification of sweetness intensity of derivative 1 was 22600 times that of sucrose. Further, the magnification of sweetness intensity of other derivatives (3 to 9) can be determined in the same manner. And the magnification of sweetness intensity in a cola beverage can be also determined by the same method compared to the control solution of cola beverage containing 10% sucrose.
Incidentally, the composition of cola beverage is as follows.
Incidentally, as for the concentration of the references, the sucrose concentrations of previous (a) to (e) were used.

[2] = Measurement of the magnification of sweetness intensity in aqueous solution (sensory evaluation against sucrose solutions); type: in vivo; conditions: for magnification of sweetness intensity, times that of sucrose: aqueous solution, PSE 10% concentration, 20 panelists
Procedure: [Method for Determining the Magnification of Sweetness Intensity]
An aqueous solution was prepared by diluting derivative 2 to be PSE 10% concentration (15.5 mg/1000 ml=10/6500 g/100 ml), assuming that the intensity of sweetness of derivative 2 was 6500 times that of sucrose. Separately, aqueous sucrose solutions having sucrose concentrations of (a)6.94%, (b)8.33%, (c)10%, (d)12%, and (e)14.4% were prepared. The sensory evaluation was performed by determining which sucrose solution was closest to the solution of derivative 2 in the sweetness intensity. The result of calculation of the average of points of 20 panelists was 2.25 point.
as §1

[3] = Magnification of sweetness intensity stated or used for calculating the sweetness of compositions; conditions: for magnification of sweetness intensity of the derivative as stated for the formulation: value used as basis of calculation, vs sucrose
[4] = Standing test of suspension at room temperature (precipitation); type: physicochemical; conditions: 1.0 weight part in 70 weight parts of water, homogenized, 7 days
[5] = Time required to dissolve completely in 500 ml of water with stirring; type: physicochemical; conditions: 0.0234 g of powder in 500 ml of water, 25° C., 200 rpm
Procedure: When 50 g of the suspension of the derivative (derivative content 0.0234 g) were added to 500 ml of water (25° C.) with stirring (200 rpm), and the time required to dissolve completely was measured, it took 50 seconds. When 0.0234 g of the powder of the derivative 1, as a reference product, were added to 500 ml of water (25° C.) with stirring (200 rpm) in the same way, and the time required to dissolve completely was measured, it took not less than 3 minutes.

[6] = Sensory evaluation in coffee against 4% sucrose coffee, after production and after storage; type: in vivo; conditions: 60 days at room temperature, judged from sweetness
Text: And, the sweetener composition in the form of suspension was poured into the sealed container and stood still at room temperature for 60 days.

Solubility = type: physicochemical; conditions: 25° C.
[7] = value used as basis of calculation, vs sucrose; cited from earlier work
[8] = Rate of dissolving and dispersibility of granular products in water; type: physicochemical; conditions: crude powder in hot water; insoluble coagulates formed
Procedure: *1: As for the rate of dissolving, the distilled water was poured in the 500 ml beaker, 1 g of sample was added to the beaker with gentle mixing by magnetic stirring, and the time of dissolving was measured.

[9] = cited from earlier work; for sweetness intensity, times that of sucrose by weight: reported in prior publications

COC(=O)[C@H](Cc1ccccc1)NC(=O)[C@H](CC(=O)O)NCCCc1ccc(OC)cc1O [Derivative 7, N-[N-[3-(2-hydroxy-4-methoxyphenyl)propyl]-L-α-aspartyl]-L-phenylalanine 1-methyl ester]
Magnification of sweetness intensity relative to sucrose, in cola beverage [1]: 10600 | Magnification of sweetness intensity relative to sucrose, in aqueous solution [2]: 11100

OC[C@@H](O)[C@@H](O)CO [Erythritol]
magnification of sweetness intensity at PSE 0.5% ([3]; was calculated as): 0.75 times

COC(=O)[C@H](Cc1ccccc1)NC(=O)[C@H](CC(=O)O)NCCC(C)(C)c1ccc(OC)cc1 [Derivative 5, N-[N-[3-(4-methoxyphenyl)-3-methylbutyl]-L-α-aspartyl]-L-phenylalanine 1-methyl ester]
Magnification of sweetness intensity relative to sucrose, in cola beverage [1]: 8000 | Magnification of sweetness intensity relative to sucrose, in aqueous solution [2]: 8400

COC(=O)[C@H](Cc1ccccc1)NC(=O)[C@H](CC(=O)O)NCCC(C)(C)c1ccc(O)c(C)c1 [Derivative 4, N-[N-[3-(3-methyl-4-hydroxyphenyl)-3-methylbutyl]-L-α-aspartyl]-L-phenyl alanine 1-methyl ester]
Magnification of sweetness intensity relative to sucrose, in cola beverage [1]: 29600 | Magnification of sweetness intensity relative to sucrose, in aqueous solution [2]: 43500

COC(=O)[C@H](Cc1ccccc1)NC(=O)[C@H](CC(=O)O)NCCC(C)(C)c1ccc(OC)c(O)c1 [Derivative 3, N-[N-[3-(3-hydroxy-4-methoxyphenyl)-3-methylbutyl]-L-α-aspartyl]-L-phenylalanine 1-methyl ester]
Magnification of sweetness intensity relative to sucrose, in cola beverage [1]: 37000 | Magnification of sweetness intensity relative to sucrose, in aqueous solution [2]: 42400

COC(=O)[C@H](Cc1ccccc1)NC(=O)[C@H](CC(=O)O)NCCCc1ccc(OC)c(O)c1 [Derivative 1, N-[N-[3-(3-hydroxy-4-methoxyphenyl)propyl]-L-α-aspartyl]-L-phenylalanine 1-methyl ester]
precipitation on standing [4]: all suspended substances were precipitated | time required to dissolve completely [5]: not less than 3 minutes | Magnification of sweetness intensity relative to sucrose, in cola beverage [1]: 22600 | magnification of sweetness intensity, times that of sucrose [2]: 22600 times | Magnification of sweetness intensity relative to sucrose, in aqueous solution [2]: 22600 | stability of the derivative in the suspension [6]: not decomposed | magnification of sweetness intensity at PSE 4% ([3]; at PSE 4%, was calculated as): 18500 times | magnification of sweetness intensity of the derivative as stated for the formulation [3]: 22600 times | solubility against isomerised sugar "Fujikraft" (Solubility): 0.035 g/100 ml | solubility in water (Solubility): 0.152 g/100 ml

OC[C@H]1O[C@@H](O[C@H]2[C@H](O)[C@@H](O)C(O)O[C@@H]2CO)[C@H](O)[C@@H](O)[C@H]1O (stereo partly shown) [lactose]
magnification of sweetness intensity of filler used for calculation [7]: 0.2

COC(=O)[C@H](Cc1ccccc1)NC(=O)[C@H](CC(=O)O)NCCC(C)(C)c1ccc(O)cc1 [Derivative 6, N-[N-[3-(4-hydroxyphenyl)-3-methylbutyl]-L-α-aspartyl]-L-phenylalanine 1-methyl ester]
Magnification of sweetness intensity relative to sucrose, in cola beverage [1]: 14000 | Magnification of sweetness intensity relative to sucrose, in aqueous solution [2]: 14900 | magnification of sweetness intensity of the derivative as stated for the formulation [3]: 14000 times

COC(=O)[C@H](Cc1ccccc1)NC(=O)[C@H](CC(=O)O)NCCCc1ccc(OC)cc1 [Derivative 2, N-[N-[3-(4-methoxyphenyl)propyl]-L-α-aspartyl]-L-phenylalanine 1-methyl ester]
Magnification of sweetness intensity relative to sucrose, in cola beverage [1]: 4900 | sweetness intensity of the solution (sucrose equivalent) ([2]; 15.5 mg/1000 ml aqueous solution): 8.75% | magnification of sweetness intensity, times that of sucrose [2]: 5600 times | Magnification of sweetness intensity relative to sucrose, in aqueous solution [2]: 5500 | magnification of sweetness intensity of the derivative as stated for the formulation [3]: 5000 times | Magnification of sweetness intensity (vs. sucrose) ([3]; value used for Example 9 suspension): 5000 | time without reaching complete dissolution [8]: > 5 min | solubility in water (Solubility): 0.009 g/100 ml

COC(=O)[C@H](Cc1ccccc1)NC(=O)[C@H](CC(=O)O)NCCCc1ccc(O)cc1O [Derivative 9, N-[N-[3-(2,4-dihydroxyphenyl)propyl]-L-α-aspartyl]-L-phenylalanine 1-methyl ester]
Magnification of sweetness intensity relative to sucrose, in cola beverage [1]: 7500 | Magnification of sweetness intensity relative to sucrose, in aqueous solution [2]: 8000

OC[C@@H](O)[C@@H](O[C@H]1O[C@H](CO)[C@@H](O)[C@H](O)[C@H]1O)[C@H](O)[C@@H](O)CO [maltitole]
magnification of sweetness intensity of filler used for calculation [7]: 0.75

COC(=O)[C@H](Cc1ccccc1)NC(=O)[C@H](CC(=O)O)NCCCc1ccc(O)c(C)c1 [Derivative 8, N-[N-[3-(3-methyl-4-hydroxyphenyl)propyl]-L-α-aspartyl]-L-phenylalanine 1-methyl ester]
Magnification of sweetness intensity relative to sucrose, in cola beverage [1]: 15800 | Magnification of sweetness intensity relative to sucrose, in aqueous solution [2]: 18200

COC(=O)[C@H](Cc1ccccc1)NC(=O)[C@@H](N)CC(=O)O [Aspartame] (H-Asp-Phe-OMe)
Magnification of sweetness intensity (vs. sucrose) ([9]; reference sweetener in Example 9): 200 | sweetness intensity, times that of sucrose by weight [9]: 200 times | magnification of sweetness intensity at PSE 0.5% ([3]; was calculated as): 360 times

COC(=O)[C@H](Cc1ccccc1)NC(=O)[C@H](CC(=O)O)NCCC(C)(C)C [Neotame]
sweetness intensity, times that of sucrose by weight [9]: 10000 times
